The text below walks through data of ChEMBL document CHEMBL1155574, “Hemolytic polar steroidal constituents of the starfish Aphelasterias japonica” (J Nat Prod, 2000).

A short description of the series: Toxicity against mouse erythrocytes assessed as hemolytic activity. The format is cell-based, Erythrocyte. As to conditions: read-out: ED50 (the source's name).

As for `CC(=O)[C@H]1CC[C@H]2[C@@H]3C[C@H](O)[C@H]4C[C@@H](OS(=O)(=O)O)CC[C@]4(C)C3=CC[C@]12C`, the HC50 was greater than 500 µM.
The result for `CC(C)CC(=O)C[C@](C)(O)[C@H]1CC[C@H]2[C@@H]3C[C@H](O)[C@H]4C[C@@H](OS(=O)(=O)O)CC[C@]4(C)C3=CC[C@@]21C` [3-O-SULFOTHORNASTEROL A] reads 110 µM; that for `CC(C)[C@H](O)C(=O)C[C@@H](C)[C@H]1CC[C@H]2[C@@H]3C[C@H](O)[C@H]4C[C@@H](OS(=O)(=O)O)CC[C@]4(C)C3=CC[C@]12C` [APHELAKETOTRIOL], 40 µM; that for `CC(C)[C@H](O)C(=O)C[C@@H](C)[C@H]1CC[C@H]2[C@@H]3C[C@H](O[C@H]4O[C@@H](C)[C@H](OS(=O)(=O)O)[C@@H](O)[C@@H]4O)[C@H]4C[C@@H](OS(=O)(=O)O)CC[C@]4(C)C3=CC[C@]12C` [APHELASTEROSIDE C], 190 µM.
For `CC(=O)[C@H]1CC[C@H]2[C@@H]3C[C@H](O[C@H]4O[C@@H](C)[C@H](OS(=O)(=O)O)[C@@H](O)[C@@H]4O)[C@H]4C[C@@H](OS(=O)(=O)O)CC[C@]4(C)C3=CC[C@]12C` [CHELIFEROSIDE L1], the HC50 turned out to be 175 µM.
The result for `CC(=O)[C@H]1CC[C@H]2[C@@H]3C[C@H](O[C@H]4O[C@@H](C)[C@H](O)[C@@H](O)[C@@H]4O)[C@H]4C[C@@H](OS(=O)(=O)O)CC[C@]4(C)C3=CC[C@]12C` [FORBESIDE E3] reads 330 µM.
